Earlier results as cited in PMC6843445, “Pharmacokinetic Properties of Fluorescently Labelled Hydroxypropyl-Beta-Cyclodextrin” (Biomolecules, 2019).
Like-named read-outs stand apart in the source and are kept apart here.

Columns and labels:
[1] = set-up: method as in ref [4],[27] = [4]; PMID 16018907; doi:10.1016/j.fct.2005.03.007; 4. Gould S. Scott R.C. 2-Hydroxypropyl-beta-cyclodextrin (HP-b-CD): A toxicology review Food Chem. Toxicol. 2005 43 1451 1459 10.1016/j.fct.2005.03.007 16018907 || [27]; 27. Committee for Human Medicinal Products (CHMP), European Medicines Agency Cyclodextrins Used as Excipients. EMA/CHMP/333892/2013 9 10 2017 Available online: http://www.ema.europa.eu/docs/en_GB/docu; conditions: rats; ref [4],[27]; cited from earlier work
[2] = test system: Caco-2 cells; set-up: method as in PMID 27317368, PMID 20434542; conditions: HPBCD with different DS; ref [6],[7]; cited from earlier work
[3] = set-up: method as in PMID 27317368, PMID 20434542; conditions: HPBCD with different DS; ref [6],[7]; cited from earlier work
[4] = set-up: method as in PMID 22552390; conditions: rats, subcutaneous long-term, daily dose of 200 mg/kg; ref [8]; cited from earlier work
[5] = set-up: method as in PMID 23611577; conditions: pigs, 2 week 0.25–0.5 g/kg/infusion; ref [9]; cited from earlier work
[6] = set-up: method as in ref [4] = [4]; PMID 16018907; doi:10.1016/j.fct.2005.03.007; 4. Gould S. Scott R.C. 2-Hydroxypropyl-beta-cyclodextrin (HP-b-CD): A toxicology review Food Chem. Toxicol. 2005 43 1451 1459 10.1016/j.fct.2005.03.007 16018907; conditions: rats, 4–7 days 225 mg/kg/day i.v.; ref [4]; cited from earlier work
[7] = set-up: method as in PMID 28803710; conditions: patients with NPC1, lumbar intrathecal; ref [2]; cited from earlier work
[8] = set-up: method as in ref [4] = [4]; PMID 16018907; doi:10.1016/j.fct.2005.03.007; 4. Gould S. Scott R.C. 2-Hydroxypropyl-beta-cyclodextrin (HP-b-CD): A toxicology review Food Chem. Toxicol. 2005 43 1451 1459 10.1016/j.fct.2005.03.007 16018907; conditions: rats; ref [4]; cited from earlier work
[9] = set-up: method as in ref [4] = [4]; PMID 16018907; doi:10.1016/j.fct.2005.03.007; 4. Gould S. Scott R.C. 2-Hydroxypropyl-beta-cyclodextrin (HP-b-CD): A toxicology review Food Chem. Toxicol. 2005 43 1451 1459 10.1016/j.fct.2005.03.007 16018907; conditions: dogs; ref [4]; cited from earlier work
[10] = set-up: method as in PMID 30521943; conditions: after 30 min; ref [21]; cited from earlier work

| Molecule | no observed adverse effect levels (NOAELs) [1] [mg/kg/day] | cytotoxicity on Caco-2 cells [2] | hemolytic activity [3] | bone effect [4] | lung findings [5] | lung findings [6] | disease progression [7] | organs with the highest HPBCD concentrations [8] | organs with the highest HPBCD concentrations [9] | activity in the lung compared to other organs [10] |
| --- | --- | --- | --- | --- | --- | --- | --- | --- | --- | --- |
| CC(O)COC[C@H]1O[C@@H]2O[C@H]3[C@H](O)[C@@H](O)[C@@H](O[C@H]4[C@H](O)[C@@H](O)[C@@H](O[C@H]5[C@H](O)[C@@H](O)[C@@H](O[C@H]6[C@H](O)[C@@H](O)[C@@H](O[C@H]7[C@H](O)[C@@H](O)[C@@H](O[C@H]8[C@H](O)[C@@H](O)[C@@H](O[C@H]1[C@H](O)[C@H]2O)O[C@@H]8COCC(C)O)O[C@@H]7COCC(C)O)O[C@@H]6COCC(C)O)O[C@@H]5COCC(C)O)O[C@@H]4COCC(C)O)O[C@@H]3COCC(C)O (stereo partly drawn) [HPBCD, 2-Hydroxypropyl-beta-cyclodextrin] | 50 | no toxicity | low hemolytic activity | caused bone loss | inflammatory changes in the lung | foamy macrophage infiltration of the lung | slowed disease progression | kidneys and lung | kidneys and liver |  |
| ^68Ga-labeled NODAGA-hydroxypropyl-beta-cyclodextrin [^68Ga-NODAGA-HPBCD] |  |  |  |  |  |  |  |  |  | relatively higher |
